# Measured values from patent US10681909B2, “Herbicidal triazoles” (FMC Corporation, priority 2014, dated 2020).
# Columns and labels:
# wheat = assay: Test A postemergence; assay type: in vivo, Triticum aestivum; details: Triticum aestivum, post-emergence, 240 h, 0 to 100 scale (0 no effect, 100 complete control), approx. 10 d, read-out: Plant response rating, Wheat
# In short: (§1)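 For preemergence, seeds were sown in a loam soil-sand blend and given a directed soil spray of test chemical in a non-phytotoxic solvent mixture with surfactant. For postemergence, plants in pots of the same blend were sprayed with the same formulation at the one- to two-leaf stage, 2 to 10 cm tall.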
# foxtail, giant [1] = assay: Test A postemergence; assay type: in vivo, Setaria faberii; details: Setaria faberi, post-emergence, 240 h, 0 to 100 scale (0 no effect, 100 complete control), approx. 10 d, read-out: Plant response rating, Foxtail, Giant
# In short: as §1
# barnyardgrass [2] = assay: Test A preemergence; assay type: in vivo, Echinochloa crus-galli; details: Echinochloa crus-galli, pre-emergence, 240 h, 0 to 100 scale (0 no effect, 100 complete control), read-out: Plant response rating, Barnyardgrass
# In short: as §1
# barnyardgrass [3] = assay: Test A postemergence; assay type: in vivo, Echinochloa crus-galli; details: Echinochloa crus-galli, post-emergence, 240 h, 0 to 100 scale (0 no effect, 100 complete control), approx. 10 d, read-out: Plant response rating, Barnyardgrass
# In short: as §1
# foxtail, giant [4] = assay: Test A preemergence; assay type: in vivo, Setaria faberii; details: Setaria faberi, pre-emergence, 240 h, 0 to 100 scale (0 no effect, 100 complete control), read-out: Plant response rating, Foxtail, Giant
# In short: as §1
# sedge, umbrella = assay: Test B flooded paddy test; assay type: in vivo, Cyperus difformis; details: Cyperus difformis, 360 h, 125 g ai/ha, applied to paddy water at 2-leaf stage, visual rating after 13 to 15 d, scale 0 (no effect) to 100 (complete control), read-out: Plant response rating, Sedge, Umbrella, Flood
# In short: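 Pots were flooded to 3 cm above the soil at treatment, and compounds were applied directly into the paddy water. That depth was held throughout. After 13 to 15 d in a greenhouse, plants were rated visually against untreated controls.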
# pigweed = assay: Test A postemergence; assay type: in vivo, Amaranthus retroflexus; details: Amaranthus retroflexus, post-emergence, 240 h, 0 to 100 scale (0 no effect, 100 complete control), approx. 10 d, read-out: Plant response rating, Pigweed
# In short: as §1
compound,measurement,setting,value
"Cn1nc(-c2ccc(F)cc2)nc1C(O)c1ccnc(C(F)(F)F)c1 (stereo not drawn) [Compound 14, α-[3-(4-fluorophenyl)-1-methyl-1H-1,2,4-triazol-5-yl]-2-(trifluoromethyl)-4-pyridinemethanol]",plant injury at 125 g/ha,wheat; 125 g ai/ha,10%
same,plant injury at 500 g/ha,wheat; 500 g ai/ha,30%
same,pest or weed control at 125 g/ha,"foxtail, giant [1]; 125 g ai/ha",20%
same,pest or weed control at 500 g/ha,"foxtail, giant [1]; 500 g ai/ha",30%
same,pest or weed control at 125 g/ha,barnyardgrass [2]; 125 g ai/ha,0%
same,pest or weed control at 500 g/ha,"barnyardgrass [2]; 500 g ai/ha, approx. 10 d",10%
same,pest or weed control at 125 g/ha,barnyardgrass [3]; 125 g ai/ha,10%
same,pest or weed control at 500 g/ha,barnyardgrass [3]; 500 g ai/ha,20%
same,pest or weed control at 125 g/ha,"foxtail, giant [4]; 125 g ai/ha",30%
same,pest or weed control at 500 g/ha,"foxtail, giant [4]; 500 g ai/ha, approx. 10 d",90%
same,pest or weed control at 125 g/ha,"sedge, umbrella",0%
same,pest or weed control at 125 g/ha,pigweed; 125 g ai/ha,60%
same,pest or weed control at 500 g/ha,pigweed; 500 g ai/ha,90%
